Reference: the CheMixHub viscosity set

Assay: xn = mol fraction of the nth substance listed

CC(=O)[C@@]12O[C@@H]1C[C@H]1[C@@H]3CCC4=CC(=O)CC[C@]4(C)[C@H]3[C@H](O)C[C@@]12C + ClC(Cl)Cl
viscosity [mPa·s]
Conditions | 295.7 K | 299.65 K | 303.75 K | 307.65 K | 312.15 K | 317.15 K | 321.15 K
100 kPa, x1 = 0.00321 | 0.57 | 0.536 | 0.52 | 0.498 | 0.491 | 0.48 | 0.454
100 kPa, x1 = 0.004735 | 0.582 | 0.553 | 0.53 | 0.506 | 0.5 | 0.485 | 0.463
100 kPa, x1 = 0.006205 | 0.596 | 0.564 | 0.544 | 0.515 | 0.505 | 0.492 | 0.474
100 kPa, x1 = 0.007786 | 0.612 | 0.577 | 0.552 | 0.524 | 0.515 | 0.499 | 0.48
100 kPa, x1 = 0.009221 | 0.629 | 0.593 | 0.566 | 0.532 | 0.522 | 0.506 | 0.489
100 kPa, x1 = 0.01088 | 0.646 | 0.609 | 0.578 | 0.544 | 0.529 | 0.516 | 0.501
100 kPa, x1 = 0.01243 | 0.662 | 0.617 | 0.585 | 0.554 | 0.54 | 0.523 | 0.513
101 kPa, x1 = 0.003181 | 0.57 | 0.536 | 0.52 | 0.498 | 0.491 | 0.48 | 0.454
101 kPa, x1 = 0.00467 | 0.582 | 0.553 | 0.53 | 0.506 | 0.5 | 0.485 | 0.463
101 kPa, x1 = 0.006096 | 0.596 | 0.564 | 0.544 | 0.515 | 0.505 | 0.492 | 0.474
101 kPa, x1 = 0.007615 | 0.612 | 0.577 | 0.552 | 0.524 | 0.515 | 0.499 | 0.48
101 kPa, x1 = 0.008981 | 0.629 | 0.593 | 0.566 | 0.532 | 0.522 | 0.506 | 0.489
101 kPa, x1 = 0.01055 | 0.646 | 0.609 | 0.578 | 0.544 | 0.529 | 0.516 | 0.501
101 kPa, x1 = 0.01199 | 0.662 | 0.617 | 0.585 | 0.554 | 0.54 | 0.523 | 0.513

OCC(O)CO + O
Conditions | viscosity [mPa·s]
293.15 K, 101.33 kPa, x1 = 0.021 | 1.307
293.15 K, 101.33 kPa, x1 = 0.047 | 1.952
293.15 K, 101.33 kPa, x1 = 0.077 | 2.817
293.15 K, 101.33 kPa, x1 = 0.12 | 4.618
293.15 K, 101.33 kPa, x1 = 0.16 | 7.693
298.15 K, 101 kPa, x1 = 0.0866 | 2.708
298.15 K, 101 kPa, x1 = 0.1636 | 7.353
298.15 K, 101 kPa, x1 = 0.2269 | 13.77
298.15 K, 101 kPa, x1 = 0.3134 | 27.75
298.15 K, 101 kPa, x1 = 0.439 | 59.74
298.15 K, 101 kPa, x1 = 0.5124 | 88.48
298.15 K, 101 kPa, x1 = 0.6378 | 163.1
298.15 K, 101 kPa, x1 = 0.7036 | 220.8
298.15 K, 101 kPa, x1 = 0.7684 | 297.3
298.15 K, 101 kPa, x1 = 0.8478 | 429.9
298.15 K, 101 kPa, x1 = 0.9176 | 604.8
298.15 K, 101 kPa, x1 = 0.9561 | 734.9
300.65 K, 101 kPa, x1 = 0.2636 | 10.84
300.65 K, 101 kPa, x1 = 0.2837 | 12.68
300.65 K, 101 kPa, x1 = 0.3153 | 16.23
300.65 K, 101 kPa, x1 = 0.3391 | 19.56
300.65 K, 101 kPa, x1 = 0.365 | 23.64
300.65 K, 101 kPa, x1 = 0.3785 | 26.06
300.65 K, 101 kPa, x1 = 0.4055 | 31.58
300.65 K, 101 kPa, x1 = 0.4294 | 37.49
300.65 K, 101 kPa, x1 = 0.485 | 54.01
300.65 K, 101 kPa, x1 = 0.5117 | 64.08
300.65 K, 101 kPa, x1 = 0.5472 | 79.81
300.65 K, 101 kPa, x1 = 0.5575 | 85.2
300.65 K, 101 kPa, x1 = 0.5867 | 102.7
300.65 K, 101 kPa, x1 = 0.6349 | 135.1
300.65 K, 101 kPa, x1 = 0.659 | 154.4
300.65 K, 101 kPa, x1 = 0.6978 | 191.6
300.65 K, 101 kPa, x1 = 0.7166 | 212.1
300.65 K, 101 kPa, x1 = 0.7442 | 245.6
300.65 K, 101 kPa, x1 = 0.7646 | 266.3
300.65 K, 101 kPa, x1 = 0.7947 | 309.7
300.65 K, 101 kPa, x1 = 0.8114 | 336.6
300.65 K, 101 kPa, x1 = 0.8274 | 363.6
300.65 K, 101 kPa, x1 = 0.8428 | 389.9
300.65 K, 101 kPa, x1 = 0.859 | 420.7
300.65 K, 101 kPa, x1 = 0.9082 | 519.8
300.65 K, 101 kPa, x1 = 0.9434 | 607.3
300.65 K, 101 kPa, x2 = 0.0171 | 715.5
303.15 K, 101 kPa, x1 = 0.00777 | 0.877
303.15 K, 101 kPa, x1 = 0.0152 | 0.956
303.15 K, 101 kPa, x1 = 0.02262 | 1.04
303.15 K, 101 kPa, x1 = 0.03118 | 1.147
303.15 K, 101 kPa, x1 = 0.03958 | 1.259
303.15 K, 101 kPa, x1 = 0.04604 | 1.351
303.15 K, 101 kPa, x1 = 0.05683 | 1.52
303.15 K, 101 kPa, x1 = 0.07063 | 1.751
303.15 K, 101 kPa, x1 = 0.07885 | 1.907
303.15 K, 101 kPa, x1 = 0.08828 | 2.098
303.15 K, 101 kPa, x1 = 0.1003 | 2.364
303.15 K, 101 kPa, x1 = 0.1112 | 2.625
303.15 K, 101 kPa, x1 = 0.1223 | 2.919
303.15 K, 101 kPa, x1 = 0.1369 | 3.347
303.15 K, 101 kPa, x1 = 0.154 | 3.909
303.15 K, 101 kPa, x1 = 0.171 | 4.552
303.15 K, 101 kPa, x1 = 0.1874 | 5.236
303.15 K, 101 kPa, x1 = 0.1967 | 5.679
303.15 K, 101 kPa, x1 = 0.2067 | 6.187
303.15 K, 101 kPa, x1 = 0.2178 | 6.77
303.15 K, 101 kPa, x1 = 0.225 | 7.222
303.15 K, 101 kPa, x1 = 0.2378 | 7.986
303.15 K, 101 kPa, x1 = 0.2459 | 8.548
303.15 K, 101 kPa, x1 = 0.2622 | 9.75
303.15 K, 101 kPa, x1 = 0.2636 | 9.8
303.15 K, 101 kPa, x1 = 0.2837 | 11.4
303.15 K, 101 kPa, x1 = 0.3153 | 14.53
303.15 K, 101 kPa, x1 = 0.3391 | 17.41
303.15 K, 101 kPa, x1 = 0.365 | 20.97
303.15 K, 101 kPa, x1 = 0.3785 | 23.02
303.15 K, 101 kPa, x1 = 0.4055 | 27.81
303.15 K, 101 kPa, x1 = 0.4294 | 32.86
303.15 K, 101 kPa, x1 = 0.485 | 46.9
303.15 K, 101 kPa, x1 = 0.5117 | 55.29
303.15 K, 101 kPa, x1 = 0.5472 | 68.64
303.15 K, 101 kPa, x1 = 0.5575 | 73.12
303.15 K, 101 kPa, x1 = 0.5867 | 87.65
303.15 K, 101 kPa, x1 = 0.6349 | 114.5
303.15 K, 101 kPa, x1 = 0.659 | 130.4
303.15 K, 101 kPa, x1 = 0.6978 | 161
303.15 K, 101 kPa, x1 = 0.7166 | 177.9
303.15 K, 101.33 kPa, x1 = 0.021 | 1.057
303.15 K, 101.33 kPa, x1 = 0.047 | 1.46
303.15 K, 101.33 kPa, x1 = 0.077 | 2.006
303.15 K, 101.33 kPa, x1 = 0.12 | 3.309
303.15 K, 101.33 kPa, x1 = 0.16 | 5.252
313.15 K, 101.33 kPa, x1 = 0.021 | 0.843
313.15 K, 101.33 kPa, x1 = 0.047 | 1.086
313.15 K, 101.33 kPa, x1 = 0.077 | 1.465
313.15 K, 101.33 kPa, x1 = 0.12 | 2.226
313.15 K, 101.33 kPa, x1 = 0.16 | 3.499
323.15 K, 101.33 kPa, x1 = 0.021 | 0.68
323.15 K, 101.33 kPa, x1 = 0.047 | 0.876
323.15 K, 101.33 kPa, x1 = 0.077 | 1.095
323.15 K, 101.33 kPa, x1 = 0.12 | 1.666
323.15 K, 101.33 kPa, x1 = 0.16 | 2.587
